Legend:
[1] = test system: aged intact or orchidectomized (ORX) male rat; test: Effect on body weight, body composition and bone density in the aged intact and orchidectomized male rat; assay type: in vivo, SD rat
Description: The purpose of this study is to test the effects of test compound in aged intact or orchidectomized (ORX) male rat model.
Male SD rats at 11 months of age were sham-operated or ORX. One day post-surgery they were treated with test compound by subcutaneous injections (s.c.) at the average dose of 3 or 10 mg/kg per day for 8 weeks. The subcutaneous injections were given 2 times (Tuesday and Friday) per week with the first injection (Tuesday) at 9 or 30 mg/kg (in sesame oil, total 0.3 ml), and the second injection (Friday) at 12 or 40 mg/kg (in sesame oil, total 0.4 ml). All rats were injected subcutaneously with calcein at 10 mg/kg on 12 and 2 days before necropsy.

[2] = test system: orchiectomized (ORX) immature male rat; test: Orchiectomized immature rat assay (levator ani and ventral prostate weights); assay type: in vivo, Sprague Dawley rat; settings: 4 days, TP 10 mg/kg = 100%, ORX control = 0%; for % TP Control LA: levator ani weight; for % TP Control VP: ventral prostate weight
Description: All animal studies were performed in accordance with the Guide for Care and Use of Laboratory Animals (National Research Council, 1996). Twenty-one day old male Sprague Dawley rats were acquired from Taconic, Inc, Germantown, N.Y. Rats were housed five per cage at standard vivarium conditions ([…], 12-h light/dark cycle), with normal chow diet and tap water ad libitum. At 25 days of age, the rats underwent bilateral orchiectomy surgery (ORX) after sedation with 3-5% Isoflurane. Following the surgery, the animals were treated immediately by daily subcutaneous (s.c.) injection with vehicle (sesame oil), testosterone propionate (TP, 10 mg/kg) and test compounds. The dosage of test compound administered is in mg/kg. At the end of the 4 days of administrations, the animals were sacrificed in a carbon dioxide chamber, the ventral prostate (VP) and levator ani muscle complex (LA) were removed and weighed. The increase in the weights of VP or LA by TP was expressed as 100%, and the ORX control as baseline, 0%; the response of the test compounds was calculated as the percentage increase compared to TP.

[3] = Group II (sham, 3 mg/kg/d) compared to Group I (sham + vehicle)
[4] = sham and ORX rats, 3 or 10 mg/kg/d s.c. for 8 weeks
[5] = sham and ORX rats, 3 or 10 mg/kg/d s.c. for 8 weeks, dose dependant, except Group II

CC[C@H]1CCCCN1c1ccc(C#N)c(C(F)(F)F)c1 [Example 1, 4-(2-(S)-Ethyl-piperidin-1-yl)-2-trifluoromethyl-benzonitrile]
fat body mass [1, 3]: slight increase
lean body mass [1, 3]: slight decrease
prostate weight ([1]; Group II sham rats (3 mg/kg/d)): did not increase
prostate weight ([1]; Group III (sham, 10 mg/kg/d) compared to Group I): slight increase
prostate weight ([1]; ORX rats, 3 or 10 mg/kg/d, dose dependent): increased prostate weight in ORX rats to the level of sham controls
levitor anni weight [1, 4]: increased
total density in the femoral shaft (FS) [1, 4]: increased
trabecular density in the distal femoral metaphysis (DFM) [1, 4]: increased
fat body mass [1, 5]: decreased
lean body mass [1, 5]: increased
% TP Control LA ([2]; 3 mg/kg s.c.): 53%
% TP Control LA ([2]; 10 mg/kg s.c.): 93%
% TP Control LA ([2]; 30 mg/kg s.c.): 100%
% TP Control VP ([2]; 3 mg/kg s.c.): 11%
% TP Control VP ([2]; 10 mg/kg s.c.): 30%
% TP Control VP ([2]; 30 mg/kg s.c.): 33%
